Assay [1] addresses T1, Matrix metalloproteinase-9 (Homo sapiens, UniProt P14780). In words: Reduction of MMP9 activity in TNF-alpha/IL1-beta-stimulated human Caco-2 cells at 50 uM treated 1 hr before stimulation by zymography. In kind it is cell-based.
Assay [2] has as its target T1, Matrix metalloproteinase-9. In words: Reduction of MMP9 activity in TNF-alpha/IL1-beta-stimulated human Caco-2 cells treated 1 hr before stimulation by zymography. In kind it is cell-based.

Molecules are shown by their SMILES. Active and inactive are the calls of the source. The calls are words filed in the database; no cut-off is given here.

T1 sequence (P14780 whole entry): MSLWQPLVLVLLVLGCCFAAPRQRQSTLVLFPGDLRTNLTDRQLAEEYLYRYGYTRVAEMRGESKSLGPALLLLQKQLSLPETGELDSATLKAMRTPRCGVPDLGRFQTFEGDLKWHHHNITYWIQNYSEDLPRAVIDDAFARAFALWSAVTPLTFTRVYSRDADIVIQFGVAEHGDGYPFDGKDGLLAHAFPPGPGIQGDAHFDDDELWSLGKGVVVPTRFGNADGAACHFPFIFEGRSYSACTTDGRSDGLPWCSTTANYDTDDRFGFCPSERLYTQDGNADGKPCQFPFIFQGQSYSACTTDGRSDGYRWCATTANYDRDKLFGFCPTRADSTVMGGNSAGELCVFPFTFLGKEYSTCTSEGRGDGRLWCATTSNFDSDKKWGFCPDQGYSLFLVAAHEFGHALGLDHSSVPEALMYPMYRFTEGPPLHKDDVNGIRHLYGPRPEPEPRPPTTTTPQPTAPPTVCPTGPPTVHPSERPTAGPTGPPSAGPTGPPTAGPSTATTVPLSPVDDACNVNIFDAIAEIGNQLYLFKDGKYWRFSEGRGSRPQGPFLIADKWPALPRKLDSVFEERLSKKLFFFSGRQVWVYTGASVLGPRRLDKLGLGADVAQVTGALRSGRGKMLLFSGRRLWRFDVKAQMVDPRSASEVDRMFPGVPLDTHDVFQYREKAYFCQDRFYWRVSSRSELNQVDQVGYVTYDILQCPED

As for `COc1cc(/C=C/c2cc(C)[nH]n2)ccc1O`, in assay [1], the result was Active. For the same compound, the IC50 (commonly the concentration that gives 50% inhibition) in assay [2] was 17.6 µM.

`COc1cc(/C=C/c2cc(/C=C/c3ccc(O)c(OC)c3)[nH]n2)ccc1O` [CURCUMIN PYRAZOLE]: the outcome in assay [1] was Active. The compound further came in with an IC50 in assay [2] of 19.4 µM. On to `COc1cc(/C=C/c2n[nH]c(C)c2C)ccc1O`, for which the outcome in assay [1] was Active. This compound also registered an IC50 in assay [2] of 8 µM. The compound `COc1cc(/C=C/C(=O)CC(=O)/C=C/c2ccc(O)c(OC)c2)ccc1O` [CURCUMIN] gave an IC50 in assay [2] of 8.5 µM. This counts as single-digit micromolar.

These data come from ChEMBL document CHEMBL1143360, “Synthesis and biological evaluation of curcuminoid pyrazoles as new therapeutic agents in inflammatory bowel disease: effect on matrix metalloproteinases” (Bioorg Med Chem, 2009).
